Measurements: patent publication US11883505B2, “Anticancer drug-containing plant virus particles” (CASE WESTERN RESERVE UNIVERSITY, priority 2015, dated 2024)

How the values were obtained:
[1] = test system: A2780/CP70 (ovarian cancer resistant to cisplatin); experiment: MTT assay, ovarian cancer cells resistant to cisplatin; assay type: cell-based, human; conditions: ovarian cancer cells resistant to cisplatin treatment
Procedure: (§1) The assay was performed as per manufacturer's recommendation; a BioTek Synergy HT multidetection microplate reader was used for read-out.

[2] = test system: OV81.2 (ovarian cancer, primary patient cells); experiment: MTT assay, primary patient ovarian cancer cells; assay type: cell-based, human; conditions: primary patient cells OV81.2
Procedure: as §1

[3] = test system: MDA-MB-231 xenografts; experiment: Treatment of MDA-MB-231 xenografts in NCR nu/nu mice; assay type: in vivo, mouse; conditions: 1.0 mg/kg (normalized to platinum or TMV content), weekly intravenous bolus
Procedure: FIGS. 7A-C show treatment of MDA-MB-231 xenografts in an athymic mouse model. […] Tumor volumes were monitored daily, and total volume was normalized to initial tumor size at time of treatment. Each treatment group consists of 5 animals (n=5); *indicates p<0.05.
All animal studies were carried using IACUC-approved procedures. […] The dosage was normalized to platinum or TMV content.

Compound | efficacy versus cisplatin [1] | efficacy versus cisplatin [2] | tumor growth / treatment effect [3]
phenanthriplatin | enhanced efficacy | Enhanced efficacy | ineffective
N.N.[Cl][Pt][Cl] [cisplatin] |  |  | ineffective
